Experimental data published in patent US7586003B2, “Derivatives of seleno-amino acids” (Zinpro Corporation, priority 2005, dated 2009).
One block for each molecule: values may come before it.

What was measured:
[1] = Tissue selenium content of lactating cows fed selenium premixes (milk serum, plasma, liver, whole blood); format: in vivo; details: for Liver Se / Milk Serum Se / Plasma Se / Whole Blood Se: female, cow
Description: (§1) Three premixes were prepared for use in a field study in lactating cows. One of the premixes contained no additional source of selenium and was intended to serve as the placebo. The second contained sodium selenite and the third contained N-Succinyl L-Selenomethionine (Compound 2). Each of the premixes was prepared by mixing an amount of the selenium source with sufficient amount of finely ground sugar to contain 250 ppm of selenium. Each premix was color identified by the incorporation of a solution of a food color during formulation and given a letter designation by random selection. […] This was done to avoid any possible biases in the interpretation of the results of the feeding experiments. Thirty lactating cows were fed one of the three premixes as a daily topdress. The effect of these selenium sources on tissue selenium content and whole blood glutathione peroxidase activity were determined. All cows were fed a total mixed diet devoid of added selenium for an initial 8-week depletion period. Daily rations were topdressed with an amount of the premix to provide 7.5 mg selenium. Treatments were continued for 8-week followed by a 4-week depletion period. Milk samples were collected on one day per week beginning the week prior to the first depletion period (Week 0) and continuing through the 20 weeks of the experiment. The selenium content of the milk serum obtained after the samples were defatted was determined. Blood samples were collected on one day per week beginning the week prior to the first depletion period (Week 0) and at four week intervals throughout the experiment (Weeks 8, 12, 16 and 20 in Table 1). The blood samples were draw into trace-element free vacutainer tubes containing an anticoagulant. Aliquots of whole blood were analyzed for selenium and glutathione peroxidase activity. Other aliquots of blood were centrifuged to harvest plasma and the selenium content of the plasma samples was determined. Liver samples were obtained by biopsy on one day per week beginning the week prior to the first depletion period (Week 0) and at four week intervals throughout the experiment (Weeks 8, 12, 16 and 20 in Table 1). Liver samples were analyzed for selenium content. […] The dramatic changes in the selenium concentrations in response to changes in dietary intake of selenium indicate that these tissues are sensitive indicators of the dietary selenium status of the lactating cows. […] The changes in the selenium concentration and glutathione peroxidase activity (GPX) in whole blood in response to changing dietary selenium intake were less sensitive than those in milk serum, plasma and liver.

glutathione peroxidase = assay: Whole-blood glutathione peroxidase activity of lactating cows fed selenium premixes; format: in vivo
Description: as §1

Solubility in water = details: in words; partly relative to parent seleno-amino acid
[2] = Stability compared with parent seleno-amino acid
[3] = Wk 0, before first depletion period
[4] = Wk 8, end of 8-week depletion, before treatment
[5] = Wk 12, 4 weeks of topdress providing 7.5 mg selenium daily
[6] = Wk 16, 8 weeks of topdress providing 7.5 mg selenium daily
[7] = Wk 20, end of 4-week second depletion

Structure (SMILES): O=[Se](O)O [Sodium Selenite, reference compound]
Change of selenium concentrations in milk serum, plasma and liver on supplemented diet ([1]; Wk12 & Wk 16, 7.5 mg selenium daily): progressive and significant increases
Whole Blood GPX (glutathione peroxidase; [3]): 17.3 EU/ml
Whole Blood GPX (glutathione peroxidase; [4]): 17.9 EU/ml
Whole Blood GPX (glutathione peroxidase; [5]): 17.6 EU/ml
Whole Blood GPX (glutathione peroxidase; [6]): 16.1 EU/ml
Whole Blood GPX (glutathione peroxidase; [7]): 17.9 EU/ml

Structure (SMILES): C[Se]CC[C@H](NC(N)=O)C(=O)O [Compound 3, N-Carbamoyl L-Selenomethionine]
Solubility in water (Solubility in water): more soluble in water
Stability of the solution relative to parent seleno-amino acid ([2]; solution in water): appears to be more stable than the parent seleno-amino acid

Structure (SMILES): C[Se]CC[C@H](N)C(=O)OC(C)C.Cl [Compound 1, L-Selenomethionine Isopropyl Ester Hydrochloride]
Solubility in water (Solubility in water): readily soluble in water
Stability relative to L-selenomethionine ([2]; in the solid state and in solution): significantly more stable than L-selenomethionine

Structure (SMILES): C[Se]CC[C@H](NC(=O)CCC(=O)O)C(=O)O [Compound 2, (S)-4-(1-carboxy-3-(methylselanyl)propylamino)-4-oxobutanoic Acid]
Liver Se ([1]; in vivo, 0 week of experiment): 1151 ng/g dry wt.
Milk Serum Se ([1]; in vivo, 0 week of experiment): 14.96 ng/mL
Plasma Se ([1]; in vivo, 0 week of experiment): 63.5 ng/mL
Whole Blood Se ([1]; in vivo, 0 week of experiment): 144.0 ng/mL
Liver Se ([1]; in vivo, 8 week of experiment): 690 ng/g dry wt.
Milk Serum Se ([1]; in vivo, 8 week of experiment): 4.30 ng/mL
Plasma Se ([1]; in vivo, 8 week of experiment): 43.6 ng/mL
Whole Blood Se ([1]; in vivo, 8 week of experiment): 136.3 ng/mL
Liver Se ([1]; in vivo, 20 week of experiment): 1003 ng/g dry wt.
Milk Serum Se ([1]; in vivo, 20 week of experiment): 10.91 ng/mL
Plasma Se ([1]; in vivo, 20 week of experiment): 52.2 ng/mL
Whole Blood Se ([1]; in vivo, 20 week of experiment): 112.1 ng/mL
Bioavailability as source of dietary selenium ([1]; in vivo): more bioavailable source of dietary selenium than sodium selenite
Whole Blood GPX (glutathione peroxidase; [3]): 18.2 EU/ml
Whole Blood GPX (glutathione peroxidase; [4]): 19.2 EU/ml
Whole Blood GPX (glutathione peroxidase; [5]): 18.7 EU/ml
Whole Blood GPX (glutathione peroxidase; [6]): 17.5 EU/ml
Whole Blood GPX (glutathione peroxidase; [7]): 19.8 EU/ml

Solubility in water (Solubility in water): less soluble
Structure (SMILES): C[Se]CC[C@@H]1NC(=O)NC1=O [Compound 4, (S)-5-(2-(methylselanyl)ethyl)midazolidine-2,4-dione]
Stability relative to parent seleno-amino acid [2]: appears to be more stable than the parent seleno-amino acid
